The text below walks through data of patent US20050123616A1, “Azithromycin multiparticulate dosage forms by liquid-based processes” (Pfizer Inc, priority 2003, published 2005).

Series [1] can be described thus: amount of azithromycin dihydrate dissolved in coating solution, indicated by pH. The series is classed as physicochemical. The following applies: aqueous hydroxypropyl cellulose coating solution, pH 9. Here is the method:
Multiparticulates were made by a spray-coating process using the following procedure. First, 30 g of the low reactivity carrier hydroxypropyl cellulose containing virtually no acid or ester substituents (KLUCEL EF from Aqualon, Inc. of Wilmington, Del.) were dissolved into 800 g of distilled water. To this solution was then added 119.6 g of crystalline azithromycin dihydrate having a degree of crystallinity of >99%.

The conditions of series [2]: distilled water at pH 6.9; cited from earlier work.

`CC[C@H]1OC(=O)[C@H](C)[C@@H](O[C@H]2C[C@@](C)(OC)[C@@H](O)[C@H](C)O2)[C@H](C)[C@@H](O[C@@H]2O[C@H](C)C[C@H](N(C)C)[C@H]2O)[C@](C)(O)C[C@@H](C)CN(C)[C@H](C)[C@@H](O)[C@]1(C)O` [azithromycin dihydrate, 9a-aza-9a-methyl-9-deoxo-9a-homoerythromycin A]: the “amount of azithromycin dihydrate dissolved in the solution” value in series [1] was “less than 1 mg/mL”. Further, the solubility (usually the concentration that dissolves in the medium under given conditions) in series [2] is 1.1 mg/mL.
